Test results: patent US20250129094A1, “NEW QUINOLINE DERIVATIVES” (ELANCO ANIMAL HEALTH GMBH, priority 2021, published 2025)
pEC50: −log10 of the molar value. Where two headings read alike, the source gives them in different places.

Columns and labels:
[1] = test system: H. contortus and/or T. colubriformis; assay: In vivo assay 3: gastro intestinal nematodes H. contortus and T. colubriformis in jirds; conditions: jirds (Meriones unguiculatus), at ≤1.0 mg/kg intraperitoneal, treated once on Day 6 after infection
Procedure: In Vivo Assay 3: Gastro Intestinal Nematodes of H. contortus (Haemonchus contortus) and T. colubriformis (Trichostrongylus colubriformis)
Jirds (Meriones unguiculatus), immunosuppressed by administration of rodent feed containing hydrocortisone 21-acetate, were experimentally infected with third instar larvae each of T. colubriformis and H. contortus by oral gavage and were treated once orally or intraperitoneally with the formulated test compound on Day 6 after infection. Three days after treatment, jirds were euthanized and dissected to recover H. contortus from stomach and T. colubriformis from the small intestine. Efficacy is expressed as a % reduction in worm numbers in comparison with a placebo treated group, using the Abbot's formula.

D. immitis Slo-1 = D. immitis Slo-1 (Dirofilaria immitis, UniProt I0DFK5); assay: D. immitis Slo-1 - action at a recombinant D. immitis cell line (membrane potential, FLIPR); format: cell-based
A. viteae = conditions: jirds (Meriones unguiculatus), at ≤25.0 mg/kg per oral, treated once, necropsy 12 weeks after infection
Source text: Jirds (Meriones unguiculatus), experimentally infected with infective A. viteae larvae via subcutaneous injection were subsequently treated once with the formulated test compound by oral gavage or intraperitoneally. At necropsy 12 weeks after infection, efficacy was expressed as a % reduction in worm numbers in comparison with the placebo treated group, using the Abbot's formula.

Sequence of D. immitis Slo-1 (I0DFK5 1-1119): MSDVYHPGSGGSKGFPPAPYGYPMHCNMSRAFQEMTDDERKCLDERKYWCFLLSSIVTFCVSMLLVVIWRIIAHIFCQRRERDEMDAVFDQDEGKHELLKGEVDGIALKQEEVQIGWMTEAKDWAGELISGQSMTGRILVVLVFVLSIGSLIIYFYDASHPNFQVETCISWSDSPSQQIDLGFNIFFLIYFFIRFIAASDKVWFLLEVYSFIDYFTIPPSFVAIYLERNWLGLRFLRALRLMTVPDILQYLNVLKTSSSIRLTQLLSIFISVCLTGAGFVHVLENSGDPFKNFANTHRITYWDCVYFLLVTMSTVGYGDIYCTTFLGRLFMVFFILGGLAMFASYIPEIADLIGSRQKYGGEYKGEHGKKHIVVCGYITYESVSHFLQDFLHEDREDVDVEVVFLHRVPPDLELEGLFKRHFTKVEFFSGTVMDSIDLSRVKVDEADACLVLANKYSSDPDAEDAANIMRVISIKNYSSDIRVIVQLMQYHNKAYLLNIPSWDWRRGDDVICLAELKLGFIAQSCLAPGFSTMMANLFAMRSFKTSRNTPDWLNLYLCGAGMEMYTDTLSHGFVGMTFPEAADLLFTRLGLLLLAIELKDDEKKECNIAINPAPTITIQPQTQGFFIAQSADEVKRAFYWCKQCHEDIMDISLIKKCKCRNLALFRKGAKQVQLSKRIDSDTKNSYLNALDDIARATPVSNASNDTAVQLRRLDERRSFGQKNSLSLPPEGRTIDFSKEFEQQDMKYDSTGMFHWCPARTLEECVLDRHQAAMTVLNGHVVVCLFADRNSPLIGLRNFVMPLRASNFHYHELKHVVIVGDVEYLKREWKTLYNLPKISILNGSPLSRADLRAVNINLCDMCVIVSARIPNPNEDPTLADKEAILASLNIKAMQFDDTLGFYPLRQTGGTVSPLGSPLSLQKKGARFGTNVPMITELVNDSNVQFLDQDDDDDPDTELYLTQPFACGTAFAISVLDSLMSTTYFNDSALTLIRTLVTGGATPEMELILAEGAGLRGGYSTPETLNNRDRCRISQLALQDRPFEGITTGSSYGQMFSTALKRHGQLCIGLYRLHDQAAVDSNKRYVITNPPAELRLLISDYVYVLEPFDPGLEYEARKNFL

| SMILES | activity (% reduction in worm numbers) [1] | EC50 (D. immitis Slo-1; read-out: pE50, stable CHO cell line expressing D. immitis Slo-1, voltage sensitive dye, upper limit in μM) | pEC50 (D. immitis Slo-1) | activity (% reduction in worm numbers) (A. viteae) |
| --- | --- | --- | --- | --- |
| O=C(N[C@H]1CCOc2ccccc21)c1cnc2c(-c3cc(F)cc(F)c3F)c(F)ccc2c1C1C[S+]([O-])C1 (single isomer, unassigned) [Example 5] | 100% |  |  |  |
| O=C(N[C@H]1CCOc2ccccc21)c1cnc2c(-c3cc(F)cc(F)c3F)c(F)ccc2c1C1C[S+]([O-])C1 (single isomer, unassigned) [Example 6] |  | 0.1 to 1 µM |  |  |
| O=C1CC(c2c(C(=O)N[C@H]3CCOc4ccccc43)cnc3c(-c4cc(F)cc(F)c4F)c(F)ccc23)C1 [Example 1, N-[(4S)-3,4-dihydro-2H-chromen-4-yl]-7-fluoro-4-(3-oxocyclobutyl)-8-(2,3,5-trifluorophenyl) quinoline-3-carboxamide] | 100% |  | 8.00 to 9.00 | 100% |
| O=C(N[C@H]1CCOc2ccccc21)c1cnc2c(-c3cc(F)cc(F)c3F)c(F)ccc2c1C1CS(=O)(=O)C1 [Example 3, N-[(4S)-3,4-dihydro-2H-chromen-4-yl]-4-(1,1-dioxidothietan-3-yl)-7-fluoro-8-(2,3,5-trifluorophenyl) quinoline-3-carboxamide] |  |  | 7.00 to 8.00 |  |
| O=C(N[C@H]1CCOc2ccccc21)c1cnc2c(-c3cc(F)cc(F)c3F)c(F)ccc2c1C1CCOC1 (stereo partly drawn) [Example 7, N-[(4S)-3,4-dihydro-2H-1-benzopyran-4-yl]-7-fluoro-4-(oxolanyl)-8-(2,3,5-trifluorophenyl) quinoline-3-carboxamide] |  |  | 8.00 to 9.00 |  |
| O=C(N[C@H]1CCOc2ccccc21)c1cnc2c(-c3cc(F)cc(F)c3F)c(F)ccc2c1[C@@H]1CCOC1 [Example 8, N-[(4S)-3,4-dihydro-2H-1-benzopyran-4-yl]-7-fluoro-4-(oxolan-(3S)-yl)-8-(2,3,5-trifluorophenyl) quinoline-3-carboxamide] | 100% |  | 8.00 to 9.00 |  |
| O=C(N[C@H]1CCOc2ccccc21)c1cnc2c(-c3cc(F)cc(F)c3F)c(F)ccc2c1[C@H]1CCOC1 [Example 9, N-[(4S)-3,4-dihydro-2H-1-benzopyran-4-yl]-7-fluoro-4-(oxolan-(3R)-yl)-8-(2,3,5-trifluorophenyl) quinoline-3-carboxamide] | 100% |  | 8.00 to 9.00 |  |
| N=S1(=O)CC(c2c(C(=O)N[C@H]3CCOc4ccccc43)cnc3c(-c4cc(F)cc(F)c4F)c(F)ccc23)C1 (stereo partly drawn) [Example 10, N-[(4S)-3,4-dihydro-2H-chromen-4-yl]-7-fluoro-4-(1-imino-1-oxido-1lambda^4-thietan-3-yl)-8-(2,3,5-trifluorophenyl) quinoline-3-carboxamide] | 100% |  | 8.00 to 9.00 |  |
| O=C(N[C@H]1CCOc2ccccc21)c1cnc2c(-c3cc(Cl)cc(Cl)c3)c(F)ccc2c1N1CCOC2CC21 (stereo partly drawn) [Example 13, 4-(2-oxa-5-azabicyclo[4.1.0]heptan-5-yl)-N—((S)-chroman-4-yl)-8-(3,5-dichlorophenyl)-7-fluoroquinoline-3-carboxamide] |  |  | 8.00 to 9.00 |  |
| O=C(N[C@H]1CCOc2ccccc21)c1cnc2c(-c3cc(F)cc(F)c3F)c(F)ccc2c1[C@H]1C[C@H](F)C1 [Example 15, N—((S)-chroman-4-yl)-7-fluoro-4-((1R,3S)-3-fluorocyclobutyl)-8-(2,3,5-trifluorophenyl) quinoline-3-carboxamide] | 100% |  | 8.00 to 9.00 |  |
| O=C1CN(c2c(C(=O)N[C@H]3CCOc4ccccc43)cnc3c(-c4cc(F)cc(F)c4F)c(F)ccc23)CCN1 [Example 16, N—((S)-chroman-4-yl)-7-fluoro-4-(3-oxopiperazin-1-yl)-8-(2,3,5-trifluorophenyl) quinoline-3-carboxamide] | 100% |  |  |  |
